Assay type in all cases: cell-based
Test [1] has as its system HIV-1 LTR promoter. As to the kind of experiment: dCas9-VPH/msgRNA (or SAHA) reactivation of latent LTR-eLuc reporter in TZM-bI cells. As to conditions: TZM-bI, transient transfection or lentivirus infection, 2 days. As to the method: Cells were plated in 96-well plate and the indicated MS2-gRNAs were cotransfected by Lipofectamine 3000 (FIG. 3A) or coinfected by lentiviruses (FIG. 3B, MOI=50) with pMSCV-LTR-dCas9-VP64-BFP plus pLV-MS2-p65-HSF1-GFP. Two days later, OneGlo luminescence assay was performed. The SIV MS2-gRNA-D was used as negative control. […] The gRNA-J has no effect due to 2 nucleotides mismatch to the LTR sequence from TZM-bI cells.
FIG. 8A, FIG. 8B, FIG. 8C, and FIG. 8D, depict the results of experiments of screening of MS2-mediated sgRNAs (msgRNAs) targeting the HIV-1 long terminal repeat (LTR) in the dCas9-synergistic activation mediator (SAM) system. FIG. 8A is a schematic illustration of SAM-VPH complex derived from dCas9-VP64 (V) and MS2-p65-HSF1 (PH) with msgRNAs. FIG. 8B is a graph showing similar activation of transfected EcoHIV-eLuc reporter by inducible (TRE) or constitutive (LTR) dCas9-VP64 expression in HEK293T cells. FIG. 8C is a graph showing similar reactivation of latent HIV-LTR-eLuc reporter in TZM-bI cells after either transient plasmid transfection by Lipofectamine 3000 or stable infection by lentivirus. […] The gRNA-J has no effect due to 2 nucleotides mismatch to the LTR sequence from TZM-bI cells. […]
FIG. 9A and FIG. 9B: TZM-bI cells were infected with dCas9-VPH and indicated msgRNA lentiviruses at 1 or 10 MOI and luciferase activity was measured at 2-21 days post-infection (dpi). […]
FIG. 12A, FIG. 12B, FIG. 12C: The dCas9-VPH stable TZM-bI cells were treated with SAHA or infected with indicated msgRNAs lentivirus for 2-4 d before luminescence reporter assay (FIG. 12A) and CELLTITER-GLO® luminescent cell viability assay (FIG. 12B). […]
Experiments were conducted to compare reactivation of HIV-LTR luciferase reporter in TZM-BI cells induced by gRNA/dCas9-VP64/MS2-p65-HSF1/delivered by either transient plasmid transfection (FIG. 3A) or stable lentivirus infection (FIG. 3B). […] Two days later, OneGlo luminescence assay was performed. […]

The subject of test [2] is HIV-1 LTR promoter. Briefly: dCas9-VP64/MS2-p65-HSF1 (SAM, dCas9-VPH) with MS2-sgRNA: EcoHIV-eLuc reporter assay in HEK293T cells. As to conditions: MS2-sgRNA/dCas9-VP64/MS2-p65-HSF1, pEcoHIV-NL4-3-eLuc, MS2-p65-HSF1 only = 1.00. The source says: FIG. 2A, FIG. 2B, and FIG. 2C, depict results of experiments comprising HIV-1 LTR-MS2-gRNA screening for LTR reactivation by SAM complex dCas9-VP64/MS2-p65-HSF1 in HEK293T cells. FIG. 2A and FIG. 2B depict a schematic of complex formation at the target site, where the complex comprises MS2-binding gRNA, dCas9-VP64, and MS2-p65-HSF1. FIG. 2C is a graph depicting the results of experiments investigating the reactivation of HIV-LTR induced by the various MS2-binding gRNA using pEcoHIV-NL4-3-eLuc reporter assay. […]
(§1) Cells were cultured in a 96-well plate and transfected or transduced with indicated vectors. To examine the eLuc reporter activity, the cell lysate was prepared using the ONE-Glo luciferase assay system (Promega) and luminescence was measured in a 2104 ENVISION® Multilabel Reader (PerkinElmer). […]
Thus, the newly-developed MS2-mediated SAM system was applied (FIG. 8A), which combined dCas9-VP64 with MS2-p65-HSF1 clustered trans-activators, designated dCas9-VPH (Konermann et al., 2015, Nature 517:583-8). […] To determine if dCas9-VPH/msgRNAs induced a better reactivation of HIV-1 latency, HIV-latent TZM-bI cells was cotransfected or cotransduced with dCas9-VPH and indicated msgRNAs (FIG. 8C) and the latency-reversing capability was measured. […]
(In general: A reporter such as luciferase makes a cellular process visible.)

Test [3] concerns HIV-1 LTR promoter. As to the kind of experiment: dCas9-VP64/sgRNA reactivation of latent LTR-luciferase reporter in TZM-bI cells. The settings on record: sgRNA/dCas9-VP64 cotransfection, 3 days, relative to empty sgRNA control.
Source text: FIG. 1A, FIG. 1B, and FIG. 1C, depict results of experiments comprising HIV-1 LTR-gRNA screening for dCas9-VP64-induced reactivation of latent LTR-luciferase reporter in TZM-bI cells. FIG. 1A is a schematic illustration depicting HIV-gRNA target sites. FIG. 1B is a schematic depicting gRNA/dCas9-VP64 binding to a target region of HIV-LTR that drives luciferase expression in TZM-bI cells. FIG. 1C depicts the results of experiments investigating the reactivation of HIV-LTR (as measured by luciferase reporter) induced by the various gRNAs. […] After 3 days, the luminescence of the cell lysate was measured with OneGlo luminescence kit. […]
Cultured cells were transfected using lipofectamine3000 transfection or lentivirus infection. The firefly-luciferase reporter assay was used using Envision multiplate reader. Treated and controls were imaged using fluorescent microscopy and/or were analyzed using flow cytometry. […]
as §1

For “MS2-p65-HSF1: MS2 bacteriophage coat protein fused to p65 and HSF1 transactivation domains (SEQ ID NO: 108)”, the “reactivation of HIV-LTR-luciferase reporter (in words)” value in test [1] is listed as “did not influence the basal activity”.

LTR-P: the “MS2-sgRNA HEK293T Fold (EcoHIV-eLuc reporter)” value in test [2] worked out at 1.32 Fold. Moreover, in test [3], the “sgRNA TZM-bI Fold (LTR-luciferase reporter)” value stood at 1.15 Fold.
